Measurements published in US9504676B2, “Molecules inhibiting a metabolic pathway involving the Syk protein tyrosine kinase and method for identifying said molecules” (CENTRE NATIONAL DE LA RECHERCHE SCIENTIFIQUE, priority 2008, dated 2016).

Legend:
BALB/c mice = assay: Peritonitis: Syk-dependent peritoneal neutrophil recruitment; assay type: in vivo; conditions: single oral administration of 100 mg/kg, Bordetella pertussis toxin
RBL-2H3 cells = assay: FACS analysis of IgE-dependent calcium flow; assay type: cell-based, rat; conditions: mast cells
Procedure: FIG. 3. C-13 inhibits FcεRI-dependent calcium release and degranulation. A. FACS analysis of IgE-dependent calcium flow in RBL-2H3 cells. B. Release of β-hexosaminidase in RBL-2H3 cells sensitised with IgE/DNP. C. Release of β-hexosamlnidase and, D. titration of TNF-α in BMMCs cells sensitised with IgE/DNP; C-13: 3 μM. E. FACS analysis of FCεRI surface expression in RBL-2H3 cells. (0=0.25% DMF). Significant inhibition with C-13 versus DMF: **P<0.01 and *P<0.05.
Binding of Btk and Vav with SLP-76 is critical for regulating PLC-γ activity on the membrane, calcium mobilisation and granule exocytosis^27, 28.
• 1) Chemical products and antibodies. A chemical bank of 3000 molecules (a varied subset) was acquired from ChemBridge, Inc. (San Diego, Calif.). […] The binding of G4G11 with Syk was assessed by adding the 9E10 monoclonal antibody conjugated with HRP detecting the amino acid sequence EQKLISEEDLN of human c-myc protein located at the C-terminal end of the scFv fragment. To generate Syk mutants, targeted mutagenesis was used on GST:Syk 6-242 protein and the binding of G4G11 with the mutants was assessed in the presence of 5 μM of C-13. • 3) Cells, culture conditions and functional tests. […]

Which “Syk-dependent neutrophil recruitment induced by thioglycollate in the peritoneal cavity” value (BALB/c mice) does the source give for `COC(=O)c1ccccc1-c1ccc(/C=C2/SC(=S)N(Cc3ccccc3)C2=O)o1` [Molecule C-13, methyl 2-{5-[(3-benzyl-4-oxo-2-thioxo-1,3-thiazolidin-5-ylidene)methyl]-2-furyl}benzoate] here?
The value was “did not affect”.

And the “calcium flow in response to FcεRI binding” value (RBL-2H3 cells)?
Its value is “reduced calcium flow range”.
